Here are results for 4 compounds from ChEMBL document CHEMBL3297698, “Novel synthetic route for antimalarial benzo[a]phenoxazine derivative SSJ-183 and two active metabolites” (Bioorg Med Chem, 2014).

One may read the IC50 as the midpoint of a concentration-inhibition curve.

Experiment [1] has as its system Plasmodium falciparum. Put plainly: Antimalarial activity against Plasmodium falciparum K1 assessed as inhibition of [3H]hypoxanthine incorporation preincubated for 48 hrs measured 24 hrs post [3H]hypoxanthine addition by liquid scintillation counting. It counts as functional, organism-based.
In experiment [2] the test system is Plasmodium falciparum. As to the kind of experiment: Antimalarial activity against Plasmodium falciparum […] assessed as inhibition of [3H]hypoxanthine incorporation preincubated for 48 hrs measured 24 hrs post [3H]hypoxanthine addition by liquid scintillation counting. It counts as functional, organism-based.

Turning to `CCN(CC)c1ccc2nc3c4ccccc4/c(=N\c4ccncc4)cc-3oc2c1`, the IC50 in experiment [1] amounted to 6.5 nM; in experiment [2], 11 nM.
For `CCNc1ccc2nc3c4ccccc4/c(=N/c4ccncc4)cc-3oc2c1`, the IC50 turned out to be 5 nM in experiment [1] and 7.5 nM in experiment [2].
`Nc1ccc2nc3c4ccccc4/c(=N/c4ccncc4)cc-3oc2c1`: the IC50 in experiment [1] was determined as 17.1 nM; in experiment [2] it was 24 nM.
Regarding `CN(C)c1ccc2nc3ccc(=[N+](C)C)cc-3sc2c1` [METHYLENE BLUE CATION], the IC50 is 5.2 nM in experiment [1] and 4.2 nM in experiment [2].
